Measured values from ChEMBL document CHEMBL1221359, “The discovery of a series of N-substituted 3-(4-piperidinyl)-1,3-benzoxazolinones and oxindoles as highly brain penetrant, selective muscarinic M1 agonists” (Bioorg Med Chem Lett, 2010).
pEC50: −log10 of the molar value. Active and inactive are the calls of the source. The calls are words filed in the database; no cut-off is given here.

Experiments:
[1] = target: T1, Muscarinic acetylcholine receptor M1 (Homo sapiens, UniProt P11229); assay: Agonist activity at human muscarinic M1 receptor expressed in CHO cells assessed as effect on calcium mobilization by FLIPR assay; type: functional, cell-based
T1 sequence (P11229 whole entry): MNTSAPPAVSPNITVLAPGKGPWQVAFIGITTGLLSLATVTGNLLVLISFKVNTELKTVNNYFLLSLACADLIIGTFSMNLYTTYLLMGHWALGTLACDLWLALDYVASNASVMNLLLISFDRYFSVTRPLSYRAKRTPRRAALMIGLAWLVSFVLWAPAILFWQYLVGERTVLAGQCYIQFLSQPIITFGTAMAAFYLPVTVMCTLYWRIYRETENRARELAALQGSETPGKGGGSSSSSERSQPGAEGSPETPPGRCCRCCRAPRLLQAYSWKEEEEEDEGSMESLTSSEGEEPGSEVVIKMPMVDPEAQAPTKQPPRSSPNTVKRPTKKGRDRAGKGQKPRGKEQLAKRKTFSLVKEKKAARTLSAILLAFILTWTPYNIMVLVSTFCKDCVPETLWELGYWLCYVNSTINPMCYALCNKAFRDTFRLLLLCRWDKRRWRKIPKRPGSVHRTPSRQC

[2] = target: T2, Muscarinic acetylcholine receptor M2 (Homo sapiens, UniProt P08172); assay: Agonist activity at human muscarinic M2 receptor expressed in CHO cells co-expressing Gqi5 chimeric G-protein assessed as effect on calcium mobilization by FLIPR assay; type: functional, cell-based
T2 sequence (P08172 whole entry): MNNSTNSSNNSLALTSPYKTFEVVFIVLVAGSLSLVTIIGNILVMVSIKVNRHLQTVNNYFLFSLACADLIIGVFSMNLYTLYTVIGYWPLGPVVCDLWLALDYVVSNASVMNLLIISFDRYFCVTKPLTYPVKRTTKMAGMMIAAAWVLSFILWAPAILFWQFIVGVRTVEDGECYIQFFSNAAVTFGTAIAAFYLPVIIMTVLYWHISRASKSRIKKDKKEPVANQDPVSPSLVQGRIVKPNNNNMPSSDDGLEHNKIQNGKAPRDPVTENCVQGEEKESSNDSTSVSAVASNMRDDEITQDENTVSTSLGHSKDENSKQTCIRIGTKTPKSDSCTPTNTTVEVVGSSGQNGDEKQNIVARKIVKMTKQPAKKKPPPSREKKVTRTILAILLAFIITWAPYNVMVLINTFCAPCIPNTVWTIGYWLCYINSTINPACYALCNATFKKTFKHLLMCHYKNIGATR

[3] = target: Muscarinic acetylcholine receptor M3 (Homo sapiens, UniProt P20309); assay: Agonist activity at human muscarinic M3 receptor expressed in CHO cells assessed as effect on calcium mobilization by FLIPR assay; type: functional, cell-based
[4] = target: T3, Muscarinic acetylcholine receptor M4 (Homo sapiens, UniProt P08173); assay: Agonist activity at human muscarinic M4 receptor expressed in CHO cells co-expressing Gqi5 chimeric G-protein assessed as effect on calcium mobilization by FLIPR assay; type: functional, cell-based
T3 sequence (P08173 whole entry): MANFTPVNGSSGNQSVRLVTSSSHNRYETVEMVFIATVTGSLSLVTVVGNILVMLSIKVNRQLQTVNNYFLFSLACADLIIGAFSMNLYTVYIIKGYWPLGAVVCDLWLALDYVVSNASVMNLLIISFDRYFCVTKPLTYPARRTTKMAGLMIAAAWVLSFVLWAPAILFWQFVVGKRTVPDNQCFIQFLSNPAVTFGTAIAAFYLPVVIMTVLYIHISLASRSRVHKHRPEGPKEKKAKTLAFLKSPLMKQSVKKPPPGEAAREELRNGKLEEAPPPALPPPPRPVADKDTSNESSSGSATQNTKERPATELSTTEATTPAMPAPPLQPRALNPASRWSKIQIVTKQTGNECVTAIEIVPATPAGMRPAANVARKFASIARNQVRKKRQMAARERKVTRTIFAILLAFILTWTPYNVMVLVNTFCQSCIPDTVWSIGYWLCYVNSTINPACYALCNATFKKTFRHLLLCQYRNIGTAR

[5] = target: T4, Muscarinic acetylcholine receptor M5 (Homo sapiens, UniProt P08912); assay: Agonist activity at human muscarinic M5 receptor expressed in CHO cells assessed as effect on calcium mobilization by FLIPR assay; type: functional, cell-based
T4 sequence (P08912 whole entry): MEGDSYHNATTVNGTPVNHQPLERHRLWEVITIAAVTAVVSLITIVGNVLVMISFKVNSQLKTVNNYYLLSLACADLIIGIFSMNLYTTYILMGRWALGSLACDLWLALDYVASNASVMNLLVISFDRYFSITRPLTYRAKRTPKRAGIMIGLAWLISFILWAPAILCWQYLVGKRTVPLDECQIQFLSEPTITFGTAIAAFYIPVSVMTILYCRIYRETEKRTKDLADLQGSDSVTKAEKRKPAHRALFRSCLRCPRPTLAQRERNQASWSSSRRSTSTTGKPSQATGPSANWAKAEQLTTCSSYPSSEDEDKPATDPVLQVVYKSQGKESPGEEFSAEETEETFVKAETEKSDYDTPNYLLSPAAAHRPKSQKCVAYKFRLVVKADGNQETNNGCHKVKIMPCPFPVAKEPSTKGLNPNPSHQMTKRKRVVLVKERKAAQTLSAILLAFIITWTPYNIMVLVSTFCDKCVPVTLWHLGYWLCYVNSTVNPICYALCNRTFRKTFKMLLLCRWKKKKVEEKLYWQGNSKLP

[6] = Clearance in rat blood at 3 mg/kg, po; type: ADME, organism-based; parameters: dose 3 mg/kg, route oral
[7] = Ratio of drug level in brain to blood in rat at 3 mg/kg, po; type: ADME, organism-based; parameters: dose 3 mg/kg, route oral
Brain = assay: Drug level in rat brain assessed as tissue binding; type: ADME, tissue-based
[8] = Drug level in rat whole blood assessed as tissue binding; type: ADME, tissue-based
[9] = Inhibition of sigma receptor at 10 uM
Rattus norvegicus [10] = assay: Cognitive enhancing effect in rat assessed as reversal of temporal-induced memory deficit at 1 mg/kg by novel object recognition assay; type: functional, organism-based; parameters: dose 1 mg/kg
Rattus norvegicus [11] = species on record: Rattus norvegicus; assay: Cognitive enhancing effect in rat assessed as reversal of temporal-induced memory deficit by novel object recognition assay; type: functional, organism-based
[12] = Ratio of drug level in brain to blood in rat at 1 mg/kg, iv; type: ADME, organism-based; parameters: dose 1 mg/kg, route intravenous

Muscarinic acetylcholine receptor M3, sequence (P20309 whole entry): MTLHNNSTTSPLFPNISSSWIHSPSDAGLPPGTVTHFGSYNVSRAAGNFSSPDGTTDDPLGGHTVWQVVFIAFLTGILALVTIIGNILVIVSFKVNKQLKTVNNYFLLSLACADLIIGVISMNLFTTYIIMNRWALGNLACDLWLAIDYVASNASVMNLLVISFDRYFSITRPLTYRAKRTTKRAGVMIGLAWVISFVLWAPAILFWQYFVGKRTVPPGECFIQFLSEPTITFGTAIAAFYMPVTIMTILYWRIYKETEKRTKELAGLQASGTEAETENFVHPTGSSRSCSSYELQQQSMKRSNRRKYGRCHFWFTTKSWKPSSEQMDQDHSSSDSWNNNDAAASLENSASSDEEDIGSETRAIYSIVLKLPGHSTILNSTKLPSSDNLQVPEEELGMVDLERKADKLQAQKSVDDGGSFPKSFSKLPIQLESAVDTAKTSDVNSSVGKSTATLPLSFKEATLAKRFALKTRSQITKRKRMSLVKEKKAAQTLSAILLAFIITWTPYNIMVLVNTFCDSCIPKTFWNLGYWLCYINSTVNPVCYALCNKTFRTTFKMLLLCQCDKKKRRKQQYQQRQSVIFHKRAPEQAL

Row | SMILES | pEC50 [1] | pEC50 [2] | pEC50 [3] | pEC50 [4] | pEC50 [5] | CL/F [6] [mL/min/kg] | Kp [7] | Drug uptake (Brain) [%] | Drug uptake [8] [%] | inhibition [9] [%] | Activity (Rattus norvegicus [10]) | Activity (Rattus norvegicus [11]) | Kp [12]
1 | CCO[C@H]1CC[C@](C)(N2CCC(n3c(=O)oc4c(F)cc(C)cc43)CC2)CC1 | 8.90 | 6.10 | 5.70 | 6.70 | 6.80 | – | – | – | – | – | – | – | –
2 | CCO[C@H]1CC[C@](C)(N2CCC(n3c(=O)oc4ccc(C#N)cc43)CC2)CC1 | 8.50 | 5.60 | 5.60 | 6.10 | 6.40 | – | – | – | – | – | – | – | –
3 | COCCO[C@H]1CC[C@](C)(N2CCC(n3c(=O)oc4ccc(C#N)cc43)CC2)CC1 | 8.00 | 5.60 | 5.40 | 6.10 | 6.00 | 23 | 1.7 | 61 | 42 | 75 | Active | Dose-dependent effect | –
4 | CCCO[C@H]1CC[C@](C)(N2CCC(n3c(=O)[nH]c4cc(F)c(C)cc43)CC2)CC1 | 9.40 | 7.70 | 7.10 | 7.90 | 7.90 | – | – | – | – | – | – | – | –
5 | CCO[C@H]1CC[C@](C)(N2CCC(n3c(=O)oc4ccc(S(=O)(=O)CC)cc43)CC2)CC1 | 6.70 | < 4.80 | 6.40 | 5.80 | 5.30 | – | – | – | – | – | – | – | –
6 | CCO[C@H]1CC[C@](C)(N2CCC(n3c(=O)oc4cc(F)c(C)cc43)CC2)CC1 | 9.00 | 6.30 | 6.10 | 7.00 | 7.30 | – | – | – | – | – | – | – | –
7 | CCO[C@H]1CC[C@](C)(N2CCC(N3C(=O)Cc4ccc(C)cc43)CC2)CC1 | 9.40 | 7.00 | 6.90 | 7.50 | 7.70 | – | – | – | – | – | – | – | –
8 | COCCO[C@H]1CC[C@](C)(N2CCC(n3c(=O)oc4ccc(C)cc43)CC2)CC1 | 8.60 | 6.20 | 6.20 | 6.70 | 6.80 | – | – | – | – | – | – | – | –
9 | Cc1cc2c(cc1F)[nH]c(=O)n2C1CCN(C2CCOCC2)CC1 | 8.30 | – | 5.60 | 6.60 | – | – | – | – | – | – | – | – | –
10 | CCCO[C@H]1CC[C@](C)(N2CCC(N3C(=O)Cc4ccc(C)cc43)CC2)CC1 | 9.30 | 7.20 | 7.20 | 7.40 | 7.70 | 85 | – | 94 | 80 | – | – | – | 5.7
11 | CCO[C@H]1CC[C@](C)(N2CCC(n3c(=O)oc4ccc(S(C)(=O)=O)cc43)CC2)CC1 | 7.90 | 5.60 | 5.90 | 5.80 | 5.90 | – | – | – | – | – | – | – | –
12 | CCCO[C@H]1CC[C@](C)(N2CCC(n3c(=O)oc4ccc(S(C)(=O)=O)cc43)CC2)CC1 | 8.60 | 6.10 | 5.50 | 6.30 | 6.50 | 11 | 0.8 | 74 | 60 | – | – | – | –
13 | CO[C@H]1CC[C@](C)(N2CCC(N3C(=O)Cc4ccc(C)cc43)CC2)CC1 | 8.50 | 6.20 | 6.50 | 6.80 | 6.90 | – | – | – | – | – | – | – | –
14 | CCO[C@H]1CC[C@](C)(N2CCC(n3c(=O)oc4ccc(OC)cc43)CC2)CC1 | 8.60 | 6.40 | 5.80 | 6.80 | 6.80 | – | – | – | – | – | – | – | –
15 | CCO[C@H]1CC[C@](C)(N2CCC(n3c(=O)oc4ccccc43)CC2)CC1 | 7.60 | < 4.80 | < 4.80 | 6.90 | 6.00 | – | – | – | – | – | – | – | –
16 | CO[C@H]1CC[C@](C)(N2CCC(n3c(=O)oc4ccc(C)cc43)CC2)CC1 | 8.10 | 5.90 | 5.70 | 6.30 | 6.40 | – | – | – | – | – | – | – | –
